Tests used:
[1] = tested on: RA-specific antibodies (4 anti-CCP2-positive sera); assay: Indirect (inhibition) ELISA: cross-reactivity of analytes with RA-specific antibodies, immobilized CCP2 as capture antigen; assay type: binding, human; set-up: Cross-reactivity of antibodies with the named analyte: concentration or dose not given beside the values
Description: A complete set of 21 amino acids and their derivatives were used as analytes to determine if any analyte inhibited the action of the detector antibody in binding to the capture antigen. Determination was made by observation at the single AA level through a series of moving windows of different derivatization. Following this procedure ensures that no antigenic elements of the epitope are missed as long as the possible AA derivatives are available. The analysis began in the fluid phase, wherein initially, the detector antibody was incubated with each of the analytes. After overnight incubation at 4° C., 100 μl of analyte preadsorbed detector antibody per well were added into 96-well microplate which immobilized CCP2 on the surface, and was incubated for 1 hour at room temperature with shaking. […] The reaction was stopped by adding 100 μl of 0.5 M H2SO4 per well and the results were estimated at A450 nm.
The concept of indirect ELISA was based upon an inhibition test between an unknown amount of analyte and a known amount of immobilized antigen for a limited number of detector antibody binding-sites. If the contents of detector antibody and immobilized antigen are kept constant, the distribution of detector antibody between immobilized antigen bound detector antibody and analyte bound detector antibody is dependent upon the amount of sample analyte. The mass of immobilized antigen bound detector antibody is inversely proportional to the amount of analyte bound detector antibody.
(§1) As described in FIG. 1, Amino Acid Profiles for the Antigenic Determinant, ELISA was carried out with sera from Euro-diagnostica (serum 1) and from three patients (serum 2, 3, and 4) with RA to CCP2 positive at various concentrations of different amino acids. […] The horizontal line at 100% represents the control percent binding of the CCP2 to the antibody.
as §1, with “2, Acetylamino” for “1, Amino”, “acetylamino” for “amino”
as §1, with “3, Alkylamino” for “1, Amino”, “alkylamino” for “amino”
as §1, with “4, Acetylamino” for “1, Amino”, “Acid Methyl Ester” for “Acid”, “acetylamino acid methyl esters.” for “amino acids.”

[2] = tested on: RA-specific antibodies (4 anti-CCP2-positive sera); assay: as above; assay type: binding, human; details: unpublished epitope mapping studies; result in words

With NC(=O)NCCC[C@H](N)C(=O)O [Citrulline] the “Inhibition of antibody binding to the immobilized CCP2” value ([1]; FIG. 1 and 2, analyte at 50 mM, 4 sera, result in words) was “limited capability to inhibit”, the “Cross-reactivity (%) of RA-specific antibody, modified α-amino acid: alkylation + acetylation” value ([1]; acetylated amino acid methyl ester of the amino acid named, 0 = less than 1%) was 100% and the “Cross-reactivity (%) of RA-specific antibody, modified α-amino acid: acetylation” value ([1]; acetylated derivative of the amino acid named, 0 = less than 1%) was 74%. For the same molecule, the “Cross-reactivity (%) of RA-specific antibody, modified α-amino acid: alkylation” value ([1]; butyl esterified (Be) derivative) was “^Be124%”, the “Cross-reactivity (%) of RA-specific antibody, modified α-amino acid: alkylation” value ([1]; ethyl esterified (Ee) derivative) was “^Ee72%” and the “Cross-reactivity (%) of RA-specific antibody, modified α-amino acid: alkylation” value ([1]; methyl esterified (Me) derivative of the amino acid named, 0 = less than 1%) was “^Me81%”. The “Cross-reactivity (%) of RA-specific antibody, modified α-amino acid: alkylation” value ([1]; propyl esterified (Pe) derivative) was “^Pe115%”, the “Cross-reactivity of antibodies with the named analyte” value ([1]; the analyte itself is named) was “zero” and the “Cross-reactivity (%) of RA-specific antibody, α-amino acid” value ([1]; unmodified α-amino acid, 0 = cross-reactivity less than 1%) was 0%. The “Binding of RA-specific antibodies” value [2] was “does not bind”.

— patent publication US8323656B2, “Antigen determinant of rheumatoid arthritis-specific autoantibody and use thereof” (priority 2007, dated 2012)
